Among the data in ChEMBL document CHEMBL5465560, “Selectivity Literature for EUbOPEN Chemogenomic Library” (2024) are % of control and % of inhibition values, retold here.

Test [1] has as its target T1, Dual specificity mitogen-activated protein kinase kinase 3 (Homo sapiens) (UniProt P46734).
T1 sequence (whole entry): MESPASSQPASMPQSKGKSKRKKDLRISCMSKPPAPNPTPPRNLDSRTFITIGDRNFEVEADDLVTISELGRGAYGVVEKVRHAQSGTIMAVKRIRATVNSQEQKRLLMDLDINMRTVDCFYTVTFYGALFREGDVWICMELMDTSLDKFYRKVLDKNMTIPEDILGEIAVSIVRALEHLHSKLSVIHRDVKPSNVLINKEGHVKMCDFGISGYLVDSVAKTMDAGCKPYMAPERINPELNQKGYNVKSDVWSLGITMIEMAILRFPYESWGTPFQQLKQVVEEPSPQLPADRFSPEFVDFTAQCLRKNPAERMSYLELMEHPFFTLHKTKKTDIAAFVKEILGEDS
In words: Selectivity interaction (KinomeScan (DiscoverX)) EUB0000666a MAP2K3. As to conditions: at 10 µM.

Test [2] concerns the target T2, Mitogen-activated protein kinase kinase kinase 2 (Homo sapiens) (UniProt Q9Y2U5).
T2 sequence (whole entry): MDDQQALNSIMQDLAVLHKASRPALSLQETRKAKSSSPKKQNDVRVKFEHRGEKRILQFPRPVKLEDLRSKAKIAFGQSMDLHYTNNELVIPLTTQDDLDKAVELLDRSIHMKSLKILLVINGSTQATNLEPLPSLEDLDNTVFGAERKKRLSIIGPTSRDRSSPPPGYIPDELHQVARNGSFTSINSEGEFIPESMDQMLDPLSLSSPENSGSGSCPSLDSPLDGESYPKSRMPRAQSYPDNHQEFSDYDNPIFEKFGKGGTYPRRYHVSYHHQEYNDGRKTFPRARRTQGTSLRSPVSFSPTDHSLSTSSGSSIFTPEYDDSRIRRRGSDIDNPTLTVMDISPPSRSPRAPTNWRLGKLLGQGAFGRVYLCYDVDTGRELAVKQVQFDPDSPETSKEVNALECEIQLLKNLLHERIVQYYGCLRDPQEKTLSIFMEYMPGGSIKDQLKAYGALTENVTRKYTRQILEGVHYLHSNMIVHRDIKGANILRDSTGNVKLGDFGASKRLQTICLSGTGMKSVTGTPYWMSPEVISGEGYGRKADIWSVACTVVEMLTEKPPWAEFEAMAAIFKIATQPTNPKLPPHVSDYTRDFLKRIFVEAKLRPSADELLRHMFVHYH
The test is described as follows: Selectivity interaction (KinomeScan (DiscoverX)) EUB0000666a MAP3K2. As to conditions: at 10 µM.

Test [3] concerns the target Wee1-like protein kinase (Homo sapiens) (UniProt P30291). The test is described as follows: Selectivity interaction (KinomeScan (DiscoverX)) EUB0001079a WEE1. As to conditions: at 1 µM.
The target of test [4] is T3, Serine/threonine-protein kinase 3 (Homo sapiens) (UniProt Q13188).
T3 sequence (whole entry): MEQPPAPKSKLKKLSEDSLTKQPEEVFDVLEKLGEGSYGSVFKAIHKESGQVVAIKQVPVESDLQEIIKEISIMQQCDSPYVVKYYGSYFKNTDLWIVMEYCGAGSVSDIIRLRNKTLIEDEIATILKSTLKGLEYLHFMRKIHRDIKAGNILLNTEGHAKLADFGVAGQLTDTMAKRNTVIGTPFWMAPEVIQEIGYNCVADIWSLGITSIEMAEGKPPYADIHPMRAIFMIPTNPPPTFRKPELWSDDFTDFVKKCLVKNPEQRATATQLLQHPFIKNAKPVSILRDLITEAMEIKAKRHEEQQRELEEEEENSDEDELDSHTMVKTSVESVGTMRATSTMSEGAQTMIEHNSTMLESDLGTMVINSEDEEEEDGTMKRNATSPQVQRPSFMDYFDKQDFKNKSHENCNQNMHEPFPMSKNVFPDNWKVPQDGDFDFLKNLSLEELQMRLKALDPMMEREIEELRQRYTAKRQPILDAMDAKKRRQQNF
In words: Selectivity interaction (ActivX KiNativ screen (kinase selectivity in THP-1 cell lysates)) EUB0000639a STK3. It is filed as subcellular. The following applies: lysate, at 0.04 µM.

Test [5] addresses Tyrosine-protein kinase Fgr (Homo sapiens) (UniProt P09769). The test is described as follows: Selectivity interaction (Kinase panel (Invitrogen)) EUB0000639a FGR. As to conditions: at 200 nM.
In test [6] the target is Cyclin-dependent kinase 16 (Homo sapiens) (UniProt Q00536). In words: Selectivity interaction (KinomeScan (DiscoverX)) EUB0000092b CDK16. As to conditions: at 10 µM.

Each structure is given as a SMILES string.

Sequence of Tyrosine-protein kinase Fgr (Homo sapiens) (P09769 2-529 limits assumed): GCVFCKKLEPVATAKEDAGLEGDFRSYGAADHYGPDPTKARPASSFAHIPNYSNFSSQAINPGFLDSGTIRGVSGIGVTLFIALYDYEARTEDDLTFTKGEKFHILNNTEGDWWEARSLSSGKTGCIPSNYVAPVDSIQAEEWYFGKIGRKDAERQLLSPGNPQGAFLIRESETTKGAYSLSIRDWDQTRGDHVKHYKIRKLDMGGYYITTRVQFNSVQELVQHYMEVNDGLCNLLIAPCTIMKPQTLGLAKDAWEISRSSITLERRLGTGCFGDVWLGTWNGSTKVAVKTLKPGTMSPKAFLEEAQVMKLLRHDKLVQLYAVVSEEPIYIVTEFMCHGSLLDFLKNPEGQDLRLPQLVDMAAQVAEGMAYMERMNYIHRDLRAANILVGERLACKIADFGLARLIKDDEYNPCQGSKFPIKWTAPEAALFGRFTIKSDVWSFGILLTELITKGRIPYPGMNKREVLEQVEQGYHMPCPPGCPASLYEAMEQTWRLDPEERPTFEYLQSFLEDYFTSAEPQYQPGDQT
Sequence of Cyclin-dependent kinase 16 (Homo sapiens) (Q00536 whole entry): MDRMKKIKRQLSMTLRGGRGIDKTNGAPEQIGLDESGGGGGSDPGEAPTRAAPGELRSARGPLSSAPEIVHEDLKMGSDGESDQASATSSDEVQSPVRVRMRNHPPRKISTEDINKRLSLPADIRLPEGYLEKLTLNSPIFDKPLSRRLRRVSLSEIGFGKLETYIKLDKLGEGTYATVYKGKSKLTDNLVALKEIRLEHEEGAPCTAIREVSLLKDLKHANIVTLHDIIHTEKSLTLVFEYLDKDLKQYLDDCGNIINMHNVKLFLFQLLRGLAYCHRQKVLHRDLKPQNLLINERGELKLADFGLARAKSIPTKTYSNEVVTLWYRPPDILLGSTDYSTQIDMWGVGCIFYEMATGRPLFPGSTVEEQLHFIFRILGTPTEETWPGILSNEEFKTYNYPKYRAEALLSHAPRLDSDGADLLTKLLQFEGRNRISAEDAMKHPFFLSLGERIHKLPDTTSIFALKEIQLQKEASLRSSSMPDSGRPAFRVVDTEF
Sequence of Wee1-like protein kinase (Homo sapiens) (P30291 whole entry, looked up): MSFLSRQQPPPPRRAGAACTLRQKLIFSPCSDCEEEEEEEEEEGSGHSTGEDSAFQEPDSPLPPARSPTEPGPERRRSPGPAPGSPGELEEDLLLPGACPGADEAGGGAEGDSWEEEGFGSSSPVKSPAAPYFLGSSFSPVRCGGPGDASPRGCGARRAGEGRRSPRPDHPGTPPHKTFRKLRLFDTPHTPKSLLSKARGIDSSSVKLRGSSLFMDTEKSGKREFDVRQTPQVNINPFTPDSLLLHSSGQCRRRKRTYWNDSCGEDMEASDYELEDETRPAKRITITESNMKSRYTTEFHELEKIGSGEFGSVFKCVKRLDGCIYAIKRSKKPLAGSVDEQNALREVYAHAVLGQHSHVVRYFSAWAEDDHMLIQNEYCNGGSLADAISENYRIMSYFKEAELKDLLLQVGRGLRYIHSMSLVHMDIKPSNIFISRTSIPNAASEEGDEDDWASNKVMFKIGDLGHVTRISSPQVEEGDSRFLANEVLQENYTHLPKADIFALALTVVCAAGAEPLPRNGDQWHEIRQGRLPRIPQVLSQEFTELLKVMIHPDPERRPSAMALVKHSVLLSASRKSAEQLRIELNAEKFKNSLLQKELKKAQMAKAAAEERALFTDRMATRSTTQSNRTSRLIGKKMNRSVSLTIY

For `O=C(NOC[C@H](O)CO)c1ccc(F)c(F)c1Nc1ccc(I)cc1F`, the % of control in test [1] worked out at 89%; in test [2], 100%.
`Nc1cnc(N2CCc3cc(S(=O)(=O)Nc4c(F)cc(Cl)cc4F)cc(N4CCCC4=O)c32)nc1` [TP-020n] had a % of control in test [3] of 72%.
As for `CC[C@@H]1[C@H](F)C(=O)N[C@@H]1COc1nccc2cc(C(N)=O)c(OC)cc12` [ZIMLOVISERTIB], the % of inhibition in test [4] amounted to 2.2%; in test [5], 8.5%.
For `CCC(=O)N1CCN(c2ccc(-n3c(=O)ccc4cnc5ccc(-c6cnc7ccccc7c6)cc5c43)cc2C(F)(F)F)CC1`, the % of control in test [6] was 91%.
